Source: PMC2904697, “A Screen for Kinetochore-Microtubule Interaction Inhibitors Identifies Novel Antitubulin Compounds” (PLoS ONE, 2010)

Key:
[1] = system: MTs assembled from αβ-tubulin; assay: Depolymerization of non-stabilized MTs in vitro (turbidity at 350 nm); assay type: biochemical; details: for Fold difference between concentration inhibiting tubulin polymerization and that needed to disassemble MTs: Fig. 5B versus Fig. 5A
Description: (§1) To quantify the antitubulin activity of compound B, we added 1–50 µmol/l compound B to 10 µmol/l αβ-tubulin. […] For this purpose, MTs were assembled from 10 µmol/l αβ-tubulin; 5 min into the reaction compound B was added in concentrations up to 200 µmol/l. MT depolymerization was tracked as a decrease in turbidity at 350 nm (Fig. 5B).
(§2) Polymerization of 10 µmol/l αβ-tubulin in BRB-80 buffer was monitored turbidimetrically at 350 nm for 15 min in a temperature-controlled spectrophotometer (37°C; SpectraMax Plus^384, Molecular Devices). To probe the effect of a compound on MT stability the molecule was added 5 min after initiation of tubulin assembly. The decrease in protein turbidity (350 nm) resulting from MT depolymerization was followed for 15 min at 37°C [13]. Quantitative comparisons of drug effects on tubulin assembly were also examined in 0.8 M glutamate with a 15 min drug-tubulin preincubation prior to the addition of GTP [14]. Tubulin assembly was monitored for 20 min at 30°C in Beckman DU7400/7500 spectrophotometers, and the compound concentration inhibiting tubulin assembly by 50% was determined.

HeLa cells [2] = assay: Mitotic delay and cell death in G1/S-synchronized HeLa cells (time-lapse videomicroscopy); assay type: cell-based, human
Description: (§3) At compound B concentrations of 5 µmol/l and above, the cells arrested robustly in metaphase (∼15 h) and then underwent cell death, as diagnosed by cell shrinkage (Fig. 3B). […] This phenotype is indicative of chromatids being unable to bind to spindle MTs and/or of spindle defects, as observed with nocodazole (Fig. 3C). […] Because drugs that inhibit tubulin polymerization also destabilize MTs, we next probed whether compound B destabilized metaphase spindles. We arrested HeLa cells in metaphase using 10 µmol/l of proteosome inhibitor MG132. […] Thus, compound B prevents tubulin assembly and destabilizes spindle MTs in cells.
Next, we determined whether the elevated antitubulin activities of compounds A6, A8, D7 and E7 (versus compound B), and the discrepancies in activity between the compounds themselves were reflected in their effects on mitosis. G1/S synchronized HeLa cells were released into growth medium containing 100 or 500 nmol/l of these compounds or compound B; the duration of the mitotic delay by the compounds and the percentage of cells undergoing subsequent cell death were scored. […] The four compounds triggered mitotic delays to an extent that directly reflects their activities in vitro (compare Fig. 6E and Fig. 6, panels B to D). […] Of note, each of our compounds acted in cells with an efficacy exceeding those measured in vitro (compare Fig. 6E and Fig. 5). This discrepancy may be due to increased compound:tubulin ratios in cells. Alternatively, the compounds may be modified intracellularly, resulting in enhanced activity. Because compound B and the four second-generation compounds are 6-furan-2-yl-3-methyl-4-oxo-4,5,6,7-tetrahydro-1H-indole-2-carboxylic acid derivatives, we have named these tubulin inhibitors “furan-metoticas”.

[3] = system: hTERT RPE-1, HCT-116 and A2780 cell lines; assay: Viability analysis (CellTiter 96 Assay); assay type: cell-based; details: Homo sapiens, 72 h, A2780 and HCT-116 cells, 3 d, 1–1000 nmol/l, read-out: IC50 for killing of cells (viability)
Description: RPE, a telomerase-immortalized cell line derived from retinal pigment epithelium, served as the non-cancer control. Antitubulin agents colchicine and nocodazole were used as controls for drug activity. The RPE, A2780, and HCT-116 cells were efficiently killed by compound A8 and the control drugs.
Viability analysis in the presence of antitubulin drugs was performed on hTERT RPE-1 (ATCC), HCT-116 (ATCC), and A2780 (EACC) cell lines. Cell lines were authenticated by PCR [22]. Absence of eight commonly encountered mycoplasma species was confirmed by PCR [23]. Experiments were performed with freshly thawed cells, which were seeded in 96-well MICROTEST tissue culture plates (Falcon) at ∼500 cells/well and grown at 37°C. After 6 h, nocodazole, colchicine or compound A8 were added (1–1000 nmol/l). The cells were incubated for 3 d at 37°C and then assayed for viability (CellTiter 96 Assay, Promega).

αβ-tubulin = assay: Tubulin polymerization tracked turbidimetrically at 350 nm; assay type: biochemical; details: for IC50: 10 µmol/l αβ-tubulin, GTP-containing buffer, turbidity 350 nm, read-out: IC50 for inhibition of tubulin polymerization
Description: as §1, §2

[4] = system: colchicine site in αβ-tubulin; assay: [3H]colchicine competition (DEAE-cellulose filter method); assay type: binding; details: [3H]colchicine 5 µmol/l, tubulin 1 µmol/l
Excerpt: Agents that inhibit tubulin polymerization and destabilize MTs include the colchicinoids, combretastatins, benzimidazole carbamates, vinca alkaloids, and maytansinoids. These drugs act primarily at β-tubulin in the αβ-heterodimer, albeit at different sites. Colchicinoids, combretastatins and benzimidazole carbamates (e.g. nocodazole) localize to the colchicine site near the C-terminus of β-tubulin at the αβ-tubulin intradimer interface, [16], whereas vinca alkaloids and maytansinoids localize to the N-terminal GTPase domain of β-tubulin [17], [18]. […] Its binding affinity, however, was ∼3-fold lower than that of nocodazole (compare values at 5 µmol/l and 20 µmol/l, Fig. 5C).
Tubulin binding of [^3H]colchicine was measured by the DEAE-cellulose filter method. Reaction mixtures contained 1.0 µmol/l αβ-tubulin, 1.0 mol/l monosodium glutamate, 0.1 mol/l glucose-1-phosphate, 1.0 mmol/l MgCl2, 1.0 mmol/l GTP, 0.5 mg/ml BSA, 5% DMSO, 5 µmol/l [^3H]colchicine, and inhibitor at 1, 5, 20 or 50 µmol/l. These reaction conditions strongly stabilize the colchicine-binding activity of tubulin [21].

HeLa cells [5] = assay: Spindle integrity and reversibility in HeLa cells (confocal IF imaging); assay type: cell-based, human; details: for Time after washout until all cells had arrested with a mitotic spindle (reversibility): compound B 5 µmol/l, washout and release into MG132 containing medium
Description: as §3
To probe whether the activity of compound B is reversible or not, we synchronously released G1/S arrested HeLa cells into fresh medium containing 5 µmol/l compound B (nocodazole was used as the positive control). The cells efficiently arrested in […] due to absence of a mitotic spindle (Fig. 3E, left column of images in each set). Compound B and nocodazole were then washed out and the cells were released in MG132 containing medium.
G1/S synchronization with 2.5 mmol/l thymidine was carried out for 16 h. IF imaging (Leica TCS SP2 confocal microscope) was performed on cells fixed with 4% paraformaldehyde, permeabilized with 0.1% Triton X-100 and treated with 4% BSA. The cells were incubated with appropriate antibodies diluted in 4% BSA in PBS. Primary antibodies used in IF imaging were mouse monoclonal antiNdc80 antibody (1∶1000, Genetex Clone 9G3.23), CREST serum (1∶50, Antibodies Incorporation) and mouse monoclonal anti-α-tubulin antibody (1∶2000, Sigma-Aldrich Clone B512). Secondary antibodies used were Alexa Fluor 488 (1∶150), Cy3 (1∶400) and Cy5 (1∶50) (Jackson Immunoresearch).

Structure (SMILES) | Ability to depolymerize MTs, fold higher than that of compound B ([1]; non-stabilized MTs in vitro) [fold] | Ability to depolymerize MTs, higher than that of nocodazole ([1]; non-stabilized MTs in vitro) [%] | Effect on mitosis at 500 nmol/l (HeLa cells [2]; HeLa released from G1/S, 500 nmol/l) | IC50 [3] [nM] | Fold lower IC50 for inhibiting tubulin assembly than that of compound B (αβ-tubulin; turbidimetric, versus compound B) [fold] | Fold more active than compound B as inhibitors of [3H]colchicine-tubulin binding [4] [fold] | Fold difference between concentration inhibiting tubulin polymerization and that needed to disassemble MTs [1] | Effect on metaphase spindles of MG132-arrested cells (HeLa cells [5]; HeLa arrested with 10 µmol/l MG132, 10 µmol/l compound) | Spindle formation in cells released from G1/S (HeLa cells [5]; HeLa, 10 µmol/l compound, confocal IF) | Time after washout until all cells had arrested with a mitotic spindle (reversibility) (HeLa cells [5]; HeLa) [h] | Concentration inducing a mitotic delay (HeLa cells [2]; HeLa released from G1/S) [µmol/L] | Concentration inducing cell death (HeLa cells [2]; HeLa released from G1/S) [µmol/L] | Duration of metaphase arrest (HeLa cells [2]; HeLa, compound concentrations of 5 µmol/l and above, followed by cell death) [h] | IC50 (αβ-tubulin) [nM] | Binding affinity for the colchicine site, fold lower than that of nocodazole ([4]; values at 5 and 20 µmol/l compared) [fold] | Inhibition of [3H]colchicine binding to tubulin ([4]; compound 1–50 µmol/l) | Drug:tubulin molar ratio at which MT stability is affected / MT depolymerization induced ([1]; MTs from 10 µmol/l αβ-tubulin, compound added 5 min into the reaction) | Fold more effective than compound B in inhibiting tubulin polymerization (αβ-tubulin; versus compound B) [fold]
CCSCCOC(=O)c1[nH]c2c(c1C)C(=O)C[C@@H](c1ccco1)C2 [A8] | 12 | 10 | robust mitotic block, followed by cell death | 25 | 4.2 | 3 | – | – | – | – | – | – | – | – | – | – | – | –
Cc1c(C(=O)OCC2CCCO2)[nH]c2c1C(=O)CC(c1ccco1)C2 (stereo not drawn) [compound B, 6-furan-2-yl-3-methyl-4-oxo-4,5,6,7,-tetrahydro-1H-indole-2-carboxylic acid tetrahydro-furan-2-ylmethyl ester] | – | – | – | – | – | – | at least 40 fold | depolymerized the spindle | All cells lacked a mitotic spindle | ≤ 3 | 1 to 10 | 5 to 10 | ~15 | 5500 | ~3 | significantly inhibited | – | –
